Reference: US20180193287A1, “HOPS-BASED SUBSTANCE AND USE OF THE SUBSTANCE” (John I. Haas, Inc., priority 2015, published 2018)

Tested on: acute liver damage in mice as a result of alcohol
Test: acute liver damage in mice as a result of alcohol, liver tissue triglyceride (FIG. 3)
Assay type: in vivo
Settings: alcohol by gavage 6 g/kg body weight, XN 5 mg/kg and/or IAA 25 mg/kg body weight applied simultaneously, liver removed after 12 hours, P<0.05
Description: A model used was acute liver damage in mice as a result of alcohol. Alcohol was applied to the mice by gavage (6 g/kg body weight). Furthermore, xanthohumol (XN; 5 mg/kg body weight), iso-alpha-acid (IAA; 25 mg/kg body weight) and a combination of xanthohumol (5 mg/kg body weight) and iso-alpha-acid (25 mg/kg body weight) were simultaneously applied in the experimental groups. After 12 hours the animals were sacrificed, the liver tissue was removed, and the triglyceride (TG) […] therein was determined. A control group of untreated mice (no-Alc) was also tested. In the “alcohol group”, a significant increase in TG can be seen in comparison with the “non-alcohol group”.
Again, the significance level is P<0.05. CTR stands for a group of alcohol-treated mice without addition of xanthohumol, iso-alpha-acid or a combination of xanthohumol and iso-alpha-acid.

Row | Structure (SMILES) | triglyceride (TG) content of liver tissue versus alcohol group
1 | COc1cc(O)c(CC=C(C)C)c(O)c1C(=O)/C=C/c1ccc(O)cc1 [xanthohumol] | does not differ significantly
2 | CC(C)=CCC(=O)[C@@]1(O)C(O)=C(C(=O)CC(C)C)C(=O)C1CC=C(C)C (stereo partly drawn) [iso-alpha-acid] | does not differ significantly
